Data reported in patent US20060069132A1, “Azolecarboxamide herbicides” (priority 2004, published 2006).

Tests used:
kochia = assay: Test E pre-/postemergence herbicide test; format: in vivo, Kochia scoparia
Source text: (§1) Seeds of plant species selected from bipinnate beggarticks (Bidens bipinnata L.), hairy beggarticks (Bidens radiata Thuill.), bermudagrass (Cynodon dactylon (L.) Pers.), Surinam grass (Urochloa decumbens (Staph) R. D. Webster, previously named Brachiaria decumbens Stapf), large crabgrass (Digitaria sanguinalis (L.) Scop.), green foxtail (Setaria viridis (L.) P. Beauv.), goosegrass (Eleusine indica (L.) Gaertn.), johnsongrass (Sorghum halepense (L.) Pers.), kochia (Kochia scoparia (L.) Schrad.), pitted morningglory (Ipomoea lacunosa L.), purple nutsedge (Cyperus rotundus L.), common ragweed (Ambrosia elatior L.), mustard (Brassica nigra (L.) W. D. J. Koch), guineagrass (Panicum maximum Jacq.), dallisgrass (Paspalum dilatatum Poir.), barnyardgrass (Echinochloa crus-galli (L). P. Beauv.), southern sandbur (Cenchrus echinatus L.), common sowthistle (Sonchus oleraceous L.), prickly sida (Sida spinosa L.), Italian ryegrass (Lolium multiflorum Lam.), common purslane (Portulaca oleracea L.), broadleaf signalgrass (Brachiaria platyphylla (Griseb.) Nash), common groundsel (Senecio vulgaris L.), common chickweed (Stellaria media (L.) Vill/Cyr.), tropical spiderwort (Commelina benghalensis L.), annual bluegrass (Poa annua L.), downy bromegrass (Bromus tectorum L.), itchgrass (Rottboellia cochinchinensis (L.) L.f.), quackgrass (Elytrigia repens (L.) Nevski), Canada horseweed (Erigeron Canadensis L.), field bindweed (Convolvulus arvensis L.), spotted spurge (Euphorbia maculata L.), common mallow (Malva sylvestris (=s silvestris) L.), and Russian thistle (Salsola kali L. ssp. Ruthenica (Iljin) Soo) were planted and treated preemergence with test chemicals formulated in a non-phytotoxic solvent mixture which included a surfactant.
(§2) At the same time, plants selected from these weed species were treated with postemergence applications of some of the test chemicals formulated in the same manner. Plants ranged in height from 2 to 18 cm (1- to 4-leaf stage) for postemergence treatments. Treated plants and controls were maintained in a greenhouse for 12 to 14 days, after which time all species were compared to controls and visually evaluated. Plant response ratings, summarized in Table E, are based on a scale of 0 to 100 where 0 is no effect and 100 is complete control. A dash (-) response means no test result.

bipinnate beggarticks = assay: Test E pre-/postemergence herbicide test; format: in vivo, Bidens bipinnata; conditions: Preemergence
Source text: as §1, §2

Row | SMILES | Plant response rating, Kochia (kochia; Postemergence, 500 g ai/ha, scale 0 to 100) | Plant response rating, Kochia (kochia; Postemergence, 250 g ai/ha, scale 0 to 100) | Plant response rating, Kochia (kochia; Preemergence, 62 g ai/ha, scale 0 to 100) | Plant response rating, Kochia (kochia; Preemergence, 125 g ai/ha, scale 0 (no effect) to 100 (complete control)) | Plant response rating, Kochia (kochia; Preemergence, 250 g ai/ha, scale 0 (no effect) to 100 (complete control)) | Plant response rating, Kochia (kochia; Preemergence, 500 g ai/ha, scale 0 (no effect) to 100 (complete control)) | Plant response rating, Kochia (kochia; postemergence, 125 g ai/ha, scale 0 to 100) | Plant response rating, Kochia (kochia; postemergence, 62 g ai/ha, scale 0 to 100) | Plant response rating, Beggarticks, Bip. (bipinnate beggarticks; 62 g ai/ha, scale 0 to 100) | Plant response rating, Beggarticks, Bip. (bipinnate beggarticks; 125 g ai/ha, scale 0 to 100) | Plant response rating, Beggarticks, Bip. (bipinnate beggarticks; 250 g ai/ha, scale 0 (no effect) to 100 (complete control)) | Plant response rating, Beggarticks, Bip. (bipinnate beggarticks; 500 g ai/ha, scale 0 (no effect) to 100 (complete control))
1 | CCn1nc(C(C)(C)C)cc1C(=O)Nc1cc(C(=O)N(C)C)ccc1F [Compound 6, N-[5-[(dimethylamino)carbonyl]-2-fluorophenyl]-3-(1,1-dimethylethyl)-1-ethyl-1H-pyrazole-5-carboxamide] | 100 | 100 | 100 | 100 | 100 | 100 | 100 | 100 |  |  |  | 
2 | Cc1nn(C(C)(C)C)nc1C(=O)Nc1cccc(C(=O)N(C)C)c1 [Compound 391] |  |  |  |  |  |  |  |  | 40 | 80 | 100 | 100
